{"source": "patent US20040029208A1", "about": "“Assay method and kit for testing biological material for exposure to stress using biomarkers” (priority 2000, published 2004)", "key": {"[1]": {"system": "Anagallis arvensis", "experiment": "TLC plant biomarker pattern after herbicide spraying (greenhouse)", "format": "in vivo", "description": "The experiments were performed in the green-house at the National Environmental Research Institute, Silkeborg, Denmark. All the seeds needed light to germinate, and were sown at the soil surface in individual 11 cm pots. The soil used during the experiments contained: (SM Growing Mould (Growing medium by special soil (sphagnum) added clay granulate), 0-30 mm; grade of turnover 55-75; added per m^3: 3 kg lime (white chalk), 1.5 kg dolit chalk, 40 kg clay granulate; Fertilizer added granulate: NO3-N: 55.0 g; NH4-N: 65.0 g; P: 106.6 g; K: 224.0 g; Mg: 22 g; Micro nutrients added in chelate form, Mo in uorganic form: B-Boron: 1 g; Cu-copper: 6 g; Mn-Manganese: 3 g; Zinc-Zn: 3 g: Fe-iron: 6 g; Mo- molybdenum: 1.4 g).\nDuring the experiments plants were watered from below, and the temperature in the green-house was maintained between 15° C. and 25° C. with variations due to external weather, and the photoperiod was 16th daylight. The green-house is divided into different units, which allowed for the separate maintenance of the control plants from the sprayed plants to avoid undesirable effects due to vapour drift.\nGlyphosate (Roundup Bio (360 g L^−1) was supplied by Monsanto Denmark A/S. Recommended field dose=1,44 kg a.i. ha^−1. In all the experiments, an automatic sprayer (designed in Denmark by Jens Kristensen 1994) was used where the herbicide application is achieved by moving boom equipment with two ordinary hydraulic flat fan nozzles (Hardi 4110-16). Two pots per spray event were placed in the middle of the spray chamber at 50 cm distance from the nozzle, delivering 200 L of water per-hectare with a desired herbicide concentration (working pressure 2 bars; speed of spray boom=4.7 km h^−1). The spraying was performed starting with the lowest concentration first, progressing towards the highest concentration. Between each herbicide, the sprayer was thoroughly rinsed several times with water. The control plants were sprayed with water.\nThe fresh plant material was pressed using a hand press. The extract was immediately centrifuged. (3000 rpm) for 10 minutes. The supernatant was used for analysis. The extracts were kept cool or right above 0° C. during the test to avoid decomposition of biomarkers.\nFreeze-dried plant material was crushed and 250 mg was extracted with 5.00 ml 75% ethanol in an ultrasonic bath for 2 hours. The temperature was kept <0° C. (using ice) during the extraction to avoid decomposition of biomarkers. The extract was centrifuged (3000 rpm) for 10 minutes. The supematant was used for analysis and were kept cool during the test to avoid decomposition of biomarkers.\nThe two extracts (freshtfresh ethanol) were applicated immediately on a TLC plate (10 μl on both TLC-Plate types (see below) using cool air-drying. The 75% ethanolic extract was applicated 10 μl on Silica-gel TLC-plates and 5 μl on Cellulose TLC-plates (see below). The fresh/fresh ethanolic extractsare recommended to perform if fresh plant material are to be analysed (field-test). The freeze-dried or frozen plant material extraction Is recommended if the analysis are performed in the laboratory.\n[…] Derivatisation: Stock solution 1:50% sulfuric acid in 96% ethanol; Stock solution 2: 2% vanillin in absolut alcohol; Derivatisation-solvent, Fresh produced before us, stock solution 1 and stock solution 2 (1:10); Aftercare: 120° C. in 2-3 min. The plate is valuated visually. The system detects higher alcoholics, phenolic compounds, steroids and etheric oils (Stahl 1969), terpenoids, phenyl propanolds, phenolic compounds (Wagner etea. 1984)\nTLC-System 7: HPTLC-Alufolie Silica Gel 60 F2u, Merck 1.05548 (10×10 cm); 10 μl plant extracts plants exposed to glyphosate and control plants; eluted in n-butanol: acetic acid: water (4:1:5) (upper phase after 5 minutes shaking). Derivatisation: 0,5 g p-anisaldehyde diluted in 10 ml conc. acetic acid and 85 ml absolute alcohol is and 5 ml conc. sulfuric acid (added in the following row). The plate is heated to. […]"}, "[2]": {"system": "all tested plants", "experiment": "Most frequent TLC biomarker pattern of all tested plants", "format": "in vivo", "conditions": "stability experiments", "text": "By th term “standard biomarker pattern” is m ant a patternd of the composition of compounds present in a plant after exposure to known stress factors. According to th invention th biomarker pattern of the unknown compounds, i.e. the above described biomarker pattern, is correlated to a standard biomarker pattern, also referred to as a “most frequent pattern”. In order to interpret the biomarker patterns of test material that has been exposed to unknown stress factors, it is a prerequisite to provide standard biomarker patterns, i.e. most frequent patterns. By the latter is meant the same type of biomarker pattern obtained after exposure to a stress factor in more than 50% of the cases of exposure, such as 60%, for example 70%, such as 80%, for example 90%. The biomarker patterns of test material that has been exposed to unknown stress factors may then be correlated to standard biomarker patterns. The standard biomarker pattern may be obtained for one particular stress factor or for a combination of at least two different stress factors.\nThe study was performed in greenhouse between August and December 1998 for all species. Degree days (=(Present temperature in ° C.-5° C.)×amount of days) were used as time scale. […] Before the harvest, the plants were evaluated for visual effects using the rating chart described in Table 1 (Hamit et al., 1977). […]"}, "[3]": {"system": "tobacco cell cultures", "conditions": "two cell lines, in the presence of glyphosate; cited from earlier work"}}}
{"smiles": "O=C(O)CNCP(=O)(O)O", "note": "[Glyphosate]", "values": [{"measurement": "LC: lowest dose of concentration of the herbicide with phytochemical changes in all the TLC-Systems", "setting": "[1]; Roundup Bio, Anagallis arvensis", "value": "1% of field dose"}, {"measurement": "Min. of label dose of herbicide with effect", "setting": "[1]; TLC 1 (non-specific compounds)", "value": 1, "unit": "%"}, {"measurement": "Min. of label dose of herbicide with effect", "setting": "[1]; TLC 6 (lipids and terpens)", "value": 1, "unit": "%"}, {"measurement": "Min. of label dose of herbicide with effect", "setting": "[1]; TLC 4d (amino acids)", "value": 1, "unit": "%"}, {"measurement": "time after exposure at which phytochemical changes were seen", "setting": "[2]; 60 degree days", "value": 4, "unit": "days"}, {"measurement": "time after exposure up to which a phytochemical pattern was present", "setting": "[2]; 480 degree days", "value": "up to 32 days"}, {"measurement": "increase of levels of free shikimic acid", "setting": "[3]", "value": "more than 300 fold"}]}
